Measurements published in patent publication US20260007728A1, “COMBINATION THERAPIES INVOLVING L-ASPARAGINASE” (Jazz Pharmaceuticals Ireland Ltd., priority 2022, published 2026).

Columns and labels:
DLBCL lines = experiment: Single-agent sensitivity of lymphoma lines (dose-response, 72 hrs incubation); type: cell-based; details: ABC, GCB, and THL lines; read-out: sensitivity to carfilzomib (range)
Excerpt: Sensitivity to asparaginase and 11 chemotherapeutic agents (carfilzomib, doxorubicin, rapamycin, ibrutinib, cyclophosphamide, prednisolone, metformin, venetoclax, navitoclax, rituximab and vincristine) determined in 8 lymphoma lines, including diffuse large B-cell and Burkitt lymphomas. The investigated lymphoma lines are sensitive to asparagine depletion within the clinically achievable range. Expression of decisive genes (BCL2, BCL6, BCL2L1, MYC, ASNS) determined in 8 lymphoma lines (FIGS. 11 and 12). Increased expression of BCL2 served as marker for resistance of ibrutinib and rapamycin in triple hit lymphoma (FIGS. 11 and 12). Increased expression of ASNS served as marker for resistance of carfilzomib and asparaginase in Burkitt lymphoma (FIGS. 11 and 12). Identified combination agents that enhanced asparaginase activity in vitro include synergy of JZP458 and rituximab, venetoclax and ibrutinib in lymphoma lines (DLBCL) (see FIG. 13, FIG. 15, and FIG. 17). […] In vivo tolerability study of long acting Erwinia Asparaginase.
ABC-DLBCL lines and one of GCB-DLBCL lines are very sensitive to JZP458 in the range of 0.011-7.3 IU/mL. Dose-response curve overlays-72 hrs incubation.

[1] = system: ASNS expression in Burkitt lymphoma lines; experiment: qPCR gene expression after compound treatment; type: cell-based
Method: Cell Culture: Cell culture medium: RPMI 1640 medium (#2198761, Thermo Fisher) supplemented with 10% fetal calf serum (#S00AZ, BioWest) and 1% pen/strep (#15140-122, Thermo Fisher). At day-1, 900 μl cell suspension was seeded in 24-well plates (#662165, Greiner Bio-One) at a density of 128,000 cells/well. At day 0, 100 μl compound was added in three different concentrations to reach a final concentration of 0.316×IC50, 1×IC50, and 3.16×IC50 (unless indicated otherwise). To the control samples, 100 μl 20 mM HEPES+3.16% DMSO was added instead of compound. When the compound is prepared in HEPES instead of DMSO, 20 mM HEPES without DMSO was added to the cells. The cells were collected at 6 hours, 24 hours and 48 hours after addition of the compound and were transferred to a 96-well deep well plate and centrifuged for 5 min at 340×g. Prior to the collection of the cells microscopic pictures were taken from the untreated (control) cells. After removing the medium, 200 μl RNA protect (#76526, Qiagen) was added to the cell pellet and the cells were stored at −80° C.
RNA isolation: Total RNA was isolated with the SV96 Total RNA Isolation System kit (#Z3505, Promega) according to manufacturer's instructions. The procedure includes a ‘RNAse free DNAse’ gDNA removal step.
Determining the RNA concentration: RNA concentrations were determined with the RiboGreen (#R11490, Thermo Fisher) kit according to manufacturer's instructions.
cDNA synthesis: RNA was reverse transcribed into cDNA using the Quantitect Reverse Transcript Kit (#205313, Qiagen) according to manufacturer's instructions. This procedure includes a second ‘RNAse free DNAse’ gDNA removal step, ensuring the complete removal of gDNA from the samples. For each time point (6 h, 24 h, or 48 h) identical volumes of RNA were used for cDNA synthesis. After synthesis, cDNA is diluted with nuclease free water to obtain approximately similar cDNA concentrations per sample.
qPCR: 1) 50° C. for 10 min (Uracil-DNA glycosylase ([…]) step to remove all potential traces of amplicon DNA from previous qPCRs); 2) 5 min UDP inactivation/denaturation at 95° C.; 3) 40 cycles of 10s denaturation at 95° C., 20s annealing at 60° C., and 30s extension at 72° C.; and 4) Dissociation curve to determine the melting temperature of the qPCR amplicon.
qPCR Data Analysis: Cq and Tm raw data values are determined by the BioRad CFX manager software from the PCR machine. For every PCR sample that produced a Cq value the corresponding melting temperature of the PCR amplicon (Tm) was checked to identify samples that generated dual or a specific PCR products. A PCR product is regarded a specific when its Tm is >0.5° C. different from that the Tm of the specific PCR amplicon, in this case the Cq value is removed and not used for further data analysis. Cq values were than normalized by subtracting the (mean) Cq value of the two housekeeping genes (ACTB & RPS18) from the Cq value of the gene of interest. The normalized value is called DCq. The Cq difference between sample and the control (DDCq) was calculated by subtracting DCq control from DCq sample. The fold difference in expression between the control (no compound) and the compound treated sample is than calculated according the 2^-DDCq method.

IC50 (DLBCL lines): 1.3 to 7.2 nM
SMILES: CC(C)C[C@H](NC(=O)[C@H](CCc1ccccc1)NC(=O)CN1CCOCC1)C(=O)N[C@@H](Cc1ccccc1)C(=O)N[C@@H](CC(C)C)C(=O)[C@@]1(C)CO1 [carfilzomib, reference compound]
change of ASNS expression ([1]; Burkitt lymphoma lines): significantly increase | increase of ASNS expression ([1]; Burkitt lymphoma lines (BJAB, RAJI, RAMOS), after treatment): 1.25 fold
